The numbers were not newly measured in PMC4955970, “Stable, synthetic analogs of diadenosine tetraphosphate inhibit rat and human P2X3 receptors and inflammatory pain” (Molecular Pain, 2016), which cites them from elsewhere.

This series has as its system P2X3R. On the set-up: method as in PMID 11821019. As to conditions: EC50 and IC50 values taken from literature ref 41; cited from earlier work.

On to `Nc1ncnc2c1ncn2[C@@H]1O[C@H](COP(=O)(O)OP(=O)(O)OP(=O)(O)O)[C@@H](O)[C@H]1O` [ATP], for which the EC50/IC50 index is recorded as 15.13.

On to `Nc1ncnc2c1ncn2[C@@H]1O[C@H](COP(=O)(O)OP(=O)(O)OP(=O)(O)OP(=O)(O)OC[C@H]2O[C@@H](n3cnc4c(N)ncnc43)[C@H](O)[C@@H]2O)[C@@H](O)[C@H]1O` [Ap4A, P^1,P^4-diadenosine tetraphosphate], for which the EC50/IC50 index was 11.48.
